Assay results as given in patent US20080280810A1, “PEPTIDES HAVING AFFINITY FOR BODY SURFACES” (priority 2006, published 2008).

Key:
[1] = Co-application of multi-block peptide with semi-permanent dye (Arianor Ebony), color retention; set-up: species or system human; key: ΔE of peptide sample minus peptide-free control; larger = better retention; details: difference in Delta E between peptide sample and peptide free control after 3 embrocation cycles (about 12 manual shampoos); pH 8.5-9.0; >2 benefit, >4 substantial benefit
Procedure: (§1) A 0.5% aqueous solution of Arianor Ebony (Sensient Technologies Corp, Milwaukee, Wis.) containing 3% benzyl alcohol and 0.05% diazolidinyl urea (biocide) was prepared. Dye insolubles were removed by filtration and the pH of the dye solution was adjusted to 8.50-9.0, using ethanolamine.
(§2) Approximately 1 mL of the dye solution was added to selected wells of a 24-well plate (Thomson Instrument Co., Oceanside, Calif.; part # 931565). A multi-block peptide (see Table 12) was dissolved in a solution consisting of 3 wt % benzyl alcohol and 95 wt % water to yield a peptide concentration of 2 wt % or approximately 20 mg/mL. The pH was adjusted to 8.5-9.0 using ethanolamine. The peptide solution was then pipetted into test wells containing dye solution in the amount of 1 mL or 0.2 mL respectively. The total volume in each test well was then adjusted to 2 mL where necessary using 3% aqueous benzyl alcohol (pH adjusted to 8.5-9.0 with ethanolamine). Peptide free controls consisted of 1 mL of dye solution diluted to 2 mL with the pH adjusted aqueous benzyl alcohol solution.
(§3) Baseline […] readings were made on one inch long tresses (see below) using an X-RITE® SP78™ Sphere Spectrophotometer (X-Rite, Inc., Grandville, Mich.), by placing the hair tress into the photosensor and calculating L*, a* and b* parameters representing the photometer response. All measurements were the average of three individual determinations.
(§4) The tresses (potted on one end with resin) of natural white, 85% gray or regular bleached hair (International Hair Importers and Products, Bellerose, N.Y.) were immersed in the peptide/dye solution and the entire well plate was agitated on a VORTEX-GENIE® 2 Mixer (Scientific Industries, Bohemia, N.Y.) at a speed setting of 1 for 30 minutes. The tresses were removed from the wells, rinsed for 30 seconds under flowing deionized water and then air dried.
(§5) The following complement of beads was then added to each well containing a hair tress: (8 beads in all; 4 Novagen Coli Rollers Plating Beads—sterilized (EMD Biosciences, San Diego, Calif.; Catalog No. 71013), 2 BioSpec 6.35 mm glass beads (BioSpec Products, Bartlesville, Okla.; Catalog No. 11079635), and 2 BioSpec 3.2 mm Stainless Steel Bead (Catalog No. 11079132ss).
(§6) Then 2.5 mL of aqueous 50% Pantene Pro V® shampoo (Proctor & Gamble Co., Cincinnati, Ohio) was pipetted into each well. The plate was placed on a VWR® VX-2500 Multi-tube Vortexer (VWR, West Chester, Pa.) for 5 minutes to simulate shampooing with embrocation. The hair tresses were then rinsed under flowing deionized water and air dried. This cycle was repeated two more times except that the length of time was 10 minutes for both subsequent embrocation cycles. (This treatment was previously determined to simulate approximately 12 manual shampoo cycles.) At the conclusion of the third embrocation cycle L*, a* and b* values were measured and Delta E values (ΔE) were calculated using equation 1 below:
(§7) where L*=the lightness variable and a* and b* are the chromaticity coordinates of CIELAB colorspace as defined by the International Commission of Illumination (CIE) (Minolta, Precise Color Communication—Color Control From Feeling to Instrumentation, Minolta Camera Co., 1996).
(§8) The Delta E value (ΔE) indicates color retention relative to the non-dyed hair and larger Delta E values indicate better performance. Values listed in the table represent the difference in Delta E values between the peptide-containing sample and the peptide free control. This difference is indicative of color retention after shampoo or water rinse treatments and positive values indicate better performance relative to the peptide free controls (Table 12).

[2] = as above; set-up: species or system human; details: difference in Delta E between peptide sample and peptide free control after 3 embrocation cycles (about 12 manual shampoos); pH 8.5-9.0; >2 benefit, >4 substantial benefit
Procedure: as §1, §2, §3, §4, §5, §6, §7, §8

[3] = Phage ELISA on pellicle coated HAP disks; assay type: binding, human; details: over 10^10 pfu purified phage, anti-M13 HRP conjugate, TMB, no phage control 0.218
Procedure: A total of 20 selected phage candidates (Example 29) were used in a phage ELISA experiment. Purified phage lysates were used for binding to pellicle HAP disks using an anti-M13 phage antibody conjugated to horseradish-peroxidase, followed by the addition of chromogenic agent TMB, obtained from Pierce Biotechnology (Rockford, Ill.). The plates were read at A450 nm.
For each phage candidate to be tested, the pellicle coated HAP disks (3 mm diameter) was incubated for 1 h at room temperature with 200 μL of blocking buffer, consisting of 2% non-fat dry milk (Schleicher & Schuell, Inc.) in TBS. The blocking buffer was removed by aspirating the liquid out of each tube. The tube was rinsed 6 times with wash buffer consisting of TBST-0.05%. The wells were filled with 200 μL of TBST-0.5% containing 1 mg/mL BSA (bovine serum albumin) and then 10 μL (over 10^10 pfu) of purified phage stock was added. The samples were incubated at room temperature for 60 min with slow shaking. The non-binding phage were removed by washing 6 times with TBST-0.5%. Then, 100 μL of horseradish peroxidase/anti-M13 antibody conjugate (Amersham USA, Piscataway, N.J.), diluted 1:500 in the blocking buffer, was added and incubated for 1 h at room temperature. The conjugate solution was removed and was washed 6 times with TBST-0.5%. TMB (3,3′,5,5′-tetramethylbenzidine) substrate (200 μL), obtained from Pierce Biotechnology (Rockford, Ill.) was added to each well and the color was allowed to develop for 5 to 30 min, typically for 10 min, at room temperature. Then, stop solution (200 μL of 2 M H2SO4) was added to each well and the solution was transferred to a 96-well plate and the A450 was measured using a microplate spectrophotometer (Molecular Devices, Sunnyvale, Calif.).

[4] = HPLC analysis of peptide uptake by hair; assay type: binding, human; details: 20 mM Tris pH 7.2, 0.15 M NaCl, room temperature, no dye; peptide 0.1 mg/mL (IB5A, A5) or 0.05 mg/mL (HC 71, HC 74)
Procedure: The purpose of this Example was to compare the speed of uptake by measuring the amount of various peptides including peptides of the invention bound to hair at different time points using a high performance liquid chromatography (HPLC) method. The peptides, HC 71, HC 74, IB5 (the hair-binding peptide sequence in HC 71), and A5 (the hair-binding peptide sequence in HC 74), were dissolved in 10 mL of 20 mM Tris, pH 7.2 buffer containing 0.15 M NaCl to give the peptide concentrations shown in Table 11. Natural white hair, 0.54 g, (International Hair Importers & Products Inc., Bellerose, N.Y.) was pre-equilibrated with 10 mL of Tris buffer for 30 min with mixing at room temperature. Then, the buffer was drained from the hair and 10 mL of one of the peptide solutions was added. The hair was incubated with the peptide solution at room temperature without mixing and samples were taken at 0, 30 and 60 min for HPLC analysis. For peptide uptake measurements in the presence of Acid Red 33 dye, the peptide solution was mixed 1:1 with an aqueous solution of the dye (0.5 wt %). Natural white hair (0.65 g) pre-wet with deionized water, was added to the peptide solutions and the solutions were incubated at room temperature without mixing. Samples were taken at time 0, 30, and 60 min for analysis by HPLC. The samples were analyzed using HPLC to determine the concentration of the peptide remaining in solution, and by difference, the amount of peptide taken up by the hair. The HPLC analysis was done using an Agilent liquid chromatograph (Agilent Technologies Inc., Wilmington, Del.) with a 5 μm Zorbax Eclipse XDB-C18 column (Agilent Technologies Inc.). The sample was diluted with distilled water containing 0.1% trifluoroacetic acid (typically a 10-fold dilution), and 5 to 50 μL was injected using a 100 μL injection loop. A solvent gradient elution was used with two solvents: Solvent A, consisting of acetonitrile with 0.1% aqueous trifluoracetic acid, and Solvent B, consisting of water with 0.1% trifluoroacetic acid. The gradient was from 10% acetonitrile to 80% acetonitrile at a rate of 1%/min over a period of 70 min. The flow rate was 1.25 mL/min. Detection was done with a photodiode array detector at 218 nm, 230 nm, and 278 nm.

A5-KRKRKD (EQISGSLVAAPWKRKRKD; Peptide having affinity for hair) [Peptide A5-KRKRKD]
ΔE Retention Ebony Dye Regular Bleached Hair [1]: 1.09
ΔE Retention Ebony dye with Natural White Hair [1]: 5.8
ΔE Retention Ebony Dye with 85% Gray Hair [2]: −0.59

DECMHGSDVEFCTS [Pell 4]
O.D. at 450 nm [3]: 0.664

NNTWPEGAGHTMPSTNIRQA [Pell 13]
O.D. at 450 nm [3]: 0.598

NGPDMVQSVGKHKNS [Pell 10]
O.D. at 450 nm [3]: 0.729

DECMEPLNAAHCWR [Pell 3]
O.D. at 450 nm [3]: 0.49

NPTDSTHMMHARNHE [Pell 16]
O.D. at 450 nm [3]: 0.578

TPCATYPHFSGCRA [Pell 19]
O.D. at 450 nm [3]: 0.731

TPPELLHGAPRS (Hair-binding peptide) [IB5A, reference compound]
% Uptake time = 0 min [4]: 0%
% Uptake time = 30 min [4]: 8%

F4-KRKRKD (LDTSFHQVPFHQKRKRKD; Peptide having affinity for hair) [Peptide F4-KRKRKD]
ΔE Retention Ebony Dye Regular Bleached Hair [1]: −2.66
ΔE Retention Ebony dye with Natural White Hair [1]: 0.12
ΔE Retention Ebony Dye with 85% Gray Hair [2]: 2.87

A5-EGEGER (EQISGSLVAAPWEGEGER; Peptide having affinity for hair) [Peptide A5-EGEGER]
ΔE Retention Ebony Dye Regular Bleached Hair [1]: −1.0
ΔE Retention Ebony dye with Natural White Hair [1]: 5.7
ΔE Retention Ebony Dye with 85% Gray Hair [2]: 3.7

IB5-KRKRKD (TPPELLHGDPRSKRKRKD; Peptide having affinity for hair)
ΔE Retention Ebony Dye Regular Bleached Hair [1]: −0.44
ΔE Retention Ebony dye with Natural White Hair [1]: 4.49
ΔE Retention Ebony Dye with 85% Gray Hair [2]: 1.2

GNTDTTPPNAVMEPTVQHKW [Pell 9]
O.D. at 450 nm [3]: 0.755

NPTATPHMKDPMHSNAHSSA [Pell 14]
O.D. at 450 nm [3]: 0.7

ASVSNYPPIHHLATSNTTVN [Pell 2]
O.D. at 450 nm [3]: 0.75

EPTHPTMRAQMHQSLRSSSP [Pell 8]
O.D. at 450 nm [3]: 0.712

NNTSADNPPETDSKHHLSMS [Pell 12]
O.D. at 450 nm [3]: 0.521

TPCAPASFNPHCSR [Pell 18]
O.D. at 450 nm [3]: 0.416

NGPEVRQIPANFEKL [Pell 11]
O.D. at 450 nm [3]: 0.607

DLCSSPSTWGSCIR [Pell 6]
O.D. at 450 nm [3]: 0.735

KF11-EGEGED (NTSQLSTEGEGED; Peptide having affinity for hair)
ΔE Retention Ebony Dye Regular Bleached Hair [1]: −4.05
ΔE Retention Ebony dye with Natural White Hair [1]: 3.6
ΔE Retention Ebony Dye with 85% Gray Hair [2]: 0.94

AHPESLGIKYALDGNSDPHA [Pell 1]
O.D. at 450 nm [3]: 0.739

DPNESNYENATTVSQPTRHL [Pell 7]
O.D. at 450 nm [3]: 0.831

WCTDFCTRSTPTSTSRSTTS [Pell 20]
O.D. at 450 nm [3]: 0.715

P-KRGRHKRPKRHK-GGG-IB5A-C (PKRGRHKRPKRHKGGGTPPELLHGAPRSC; Peptide having affinity for hair) [HC100]
ΔE Retention Ebony Dye Regular Bleached Hair [1]: −0.27
ΔE Retention Ebony dye with Natural White Hair [1]: −4.5
ΔE Retention Ebony Dye with 85% Gray Hair [2]: 4.1

DLCSMQMMNTGCHY [Pell 5]
O.D. at 450 nm [3]: 0.83

EQISGSLVAAPW (Hair-Binding Peptide) [Peptide A5, reference compound]
% Uptake time = 0 min [4]: 0%
% Uptake time = 30 min [4]: 2%
% Uptake time = 60 min [4]: 4%

NPTDHIPANSTNSRVSKGNT [Pell 15]
O.D. at 450 nm [3]: 0.567

LDTSFHQVPFHQ (Peptide having affinity for hair) [Peptide F4, reference compound]
ΔE Retention Ebony Dye Regular Bleached Hair [1]: 0.95
ΔE Retention Ebony dye with Natural White Hair [1]: 5.17
ΔE Retention Ebony Dye with 85% Gray Hair [2]: 3.24
